1 molecule from the NIST ThermoML archive (doi:10.1021/acs.jced.9b00064) can be followed below.

Structures are written as SMILES. ± gives the expanded uncertainty stated by the source.

For data set [1] the following is noted: Crystal; DSC.
Data set [2] can be described thus: Molar enthalpy of transition or fusion. The note with it: Crystal; DSC.

Take `c1ccc2ccccc2c1` [naphthalene]: in data set [1], the Triple point temperature is given as 355.04 ± 2.1 K. For the same molecule, the “Molar enthalpy of transition or fusion” value in data set [2] came out at 4.99 ± 0.478 kcal/mol.
